# Test system: Streptozotocin-injected male Wistar rats
# Test: Glycemia over 24 days in streptozotocin (60 mg/kg) rats given betaine in drinking water (Example 4)
# Type: in vivo, rat
# Conditions: 200 mg/kg/day in drinking water, STZ 60 mg/kg rats, FIG. 4
# Procedure: Male Wistar rats (+250 g) after 1 week stabulation are injected Streptozotocin 60 mg/kg intraperitoneally. Animals (n=8/group) were fed with normal chow and water ad libitum during 5 days, then at day 1 (T0) Betaine (200 mg/kg/day) or placebo were dissolved and administrated daily in drinking water during 24 days; full access to normal chow was maintained during the whole experiments. Glycemia was measured morning at days of experiments, in non-fastened rats (as in previous exp.). At T0+7 days the treatments were inverted between the 2 groups.
compound,measurement,value
C[N+](C)(C)CC(=O)O [glycine betaine],effect on the regulation of blood glucose,per se possesses an effect on the regulation of blood glucose

# Source: patent publication US7786077B2, “Insulins combinations” (priority 2005, dated 2010)
